In US20070289032A1, “AGROBACTERIUM TRANSFORMATION OF GUAR” (SAMUEL ROBERTS NOBEL FOUNDATION, priority 2006, published 2007):

Assays:
Assay type in all cases: cell-based, Cyamopsis tetragonoloba
[1] = system: cotyledonary node explants of guar variety Lewis; test: Multiple shoot regeneration from cotyledonary node explants on B5 medium with growth regulators (Lewis); details: percentage of explants that formed shoots; B5 shoot initiation medium, hormone concentrations in μM
Procedure: (§1) Explant preparation. Guar seeds of two American cultivars (Lewis and Kinman; e.g. (Undersander et al., 1991) were surface sterilized in concentrated sulphuric acid for 10 min followed by four washes in ice cold sterile distilled water. Subsequently the seeds were treated with 10% commercial bleach (containing 6.0% free chlorine) for 5 min with a few drops of Tween 20 and washed thoroughly three to four times in sterile distilled water. The sterile seeds were sown in magenta boxes on MS medium (Murashige and Skoog, 1962) with 3% sucrose, 0.8% agar, pH 5.8, and germination was continued for 7-9 days under a 16 h/8 h day/night regime at 25° C. Three-four mm long cotyledonary node explants comprising the meristematic zone were excised from the seedlings and used for shoot regeneration and transformation.
(§2) Shoot regeneration. Shoot regeneration was performed in two different phases; shoot initiation and shoot elongation. For shoot initiation, […] cotyledonary node explants were cultured with the adaxial surface touching the medium in Petri plates (FIG. 1A). The explants were cultured on Gamborg's B5 medium (Gamborg et al., 1968), supplemented with 3% (w/v) sucrose, 0.8% Phyto agar (Caisson Laboratories Inc.), pH 5.8 (shoot initiation medium, SIM) with different combinations of growth regulators (Table 1). […]

[2] = system: cotyledonary node explants of guar variety Kinman; test: Multiple shoot regeneration from cotyledonary node explants on B5 medium with growth regulators (Kinman); details: percentage of explants that formed shoots; B5 shoot initiation medium, hormone concentrations in μM
Procedure: as §1, §2

regenerated guar shoots = test: Root induction from regenerated guar shoots; details: regenerated guar shoots in rooting medium
Excerpt: Root induction from the regenerated shoots. Non-transgenic shoots (two weeks old) from the shoot elongation medium were subjected to two different rooting procedures. Five 10 mm long shoots were harvested from the shoot elongation medium (SEM), the basal region was cut in order to remove any callus or necrotic tissue and the shoot ends were dipped either in a lawn of Agrobacterium rhizogenes (strain ARqua1) and transferred to root induction medium 1 (Farhaeus medium (Dazzo and Hubbell, 1982) solidified with 0.9-1.0% Gelrite) or directly transferred to root induction medium 2 (½ MS salts, Gamborg's B5 vitamins, 2.5% sucrose, 0.5-2.00 mg/l indole 3-butyric acid (IBA), agar 0.8%, pH 5.8) without any Agrobacterium rhizogenes inoculum. To prepare the A. rhizogenes lawn, a single colony was inoculated in 2 ml liquid Farhaeus medium containing 250 mg/l streptomycin in a 10 ml culture tube and cultured for 2-3 days at 28° C. on a rotary shaker. When the O.D. (600 nm) reached 1.0, 50-120 μl of the suspension was spread on a solid Farhaeus plate containing 250 mg/l streptomycin and 0.3% Gelrite. Within 3 days the bacteria formed a lawn on the plate which was subsequently used for infecting the shoot bases. Roots developed within 4 weeks and the rooted plants were transferred to the soil and grown in a growth chamber at 30° C. and 12 hrs of light.
Study of root anatomy. […]

Structure (SMILES)	Shoot morphogenesis frequency (%) in the genotype Lewis [1]	Shoot morphogenesis frequency (%) in the genotype Kinman [2]	shoots that formed callus at the base (regenerated guar shoots)
O=C(Nc1ccccc1)Nc1cnns1 [TDZ 9.10, Thidiazuron]	31.67%	33.33%	–
O=C(O)CCCc1c[nH]c2ccccc12 [IBA, indole 3-butyric acid]	–	–	more than 90%
c1ccc(CNc2ncnc3nc[nH]c23)cc1 [BAP 4.44, 6-benzylaminopurine]	25.89%	26.49%	–
